Reference: patent publication US20240101531A1, “PYRIDINAMINE DERIVATIVES AND THEIR USE AS POTASSIUM CHANNEL MODULATORS” (Xenon Pharmaceuticals Inc., priority 2022, published 2024)
Counter-ions that a name gives are not always drawn.

Target: human KV7.2/KV7.3 (Homo sapiens (Human), UniProt O43525+O43526)
Assay: Potassium flux assay (IPG-2 AM dye)
Type: cell-based
Conditions: TREX HEK 293 or HEK 293 cells expressing human KV7.2/KV7.3; arithmetic mean values
How it was run: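 EC50 from 16 concentrations (2-fold dilutions, top 30 μM), scaled between DMSO baseline and a known KV7.x modulator maximum. Signal is IPG-2 AM fluorescence (ex 530/em 558 nm) after 10 mM KCl challenge buffer addition, following 20 min room-temperature compound exposure of HEK 293 or TREX HEK 293 cells stably expressing human KV7.2/KV7.3.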

Row | Compound | EC50 [nM]
1 | Cc1ccc(Nc2nccc3cc(OCc4c[nH]nc4C)ccc23)cn1 [Example 427, 6-((3-methyl-1H-pyrazol-4-yl)methoxy)-N-(6-methylpyridin-3-yl)isoquinolin-1-amine formate] | < 1000
2 | N^8-(6-chloropyridin-3-yl)-N^3-((1-methyl-1H-pyrazol-4-yl)methyl)-1,7-naphthyridine-3,8-diamine [Example 251] | 1000 to 10000
